Data on 20 molecules can be found in patent publication US12102648B2, “Orally-bioavailable nucleoside analogs” (priority 2021, dated 2024).

Like-named read-outs stand apart in the source and are kept apart here.

The data set in a line: in vitro. It counts as in vitro ADME. The note with it: human. An outline of the steps: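 Caco-2 monolayers cultured 19 days on inserts (TEER >600 […]); bidirectional A-to-B and B-to-A transport at 37° C over 90 min, samples quantified by LC/MS/MS. Papp, efflux ratio and recovery calculated; ER >2 flags potential efflux substrates.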
[1] abbreviates: Caco-2 monolayer, apical to basolateral, 90-minute incubation, read-out: Papp, A-B.
Setting [2] is: Caco-2 monolayer, basolateral to apical, 90-minute incubation, read-out: Papp, B-A.
Setting [3] is: Caco-2 monolayer, ER>2 indicates potential efflux transporter substrate, read-out: ER (efflux ratio).

For the molecule `CC(C)(C(=O)OC[C@H]1O[C@@](C#N)(c2ccc3c(N)ncnn23)[C@H](O)[C@@H]1O)C1CCCCC1` [Compound 269, ((2R,3S,4R,5R)-5-(4-aminopyrrolo[2,1-f][1,2,4]triazin-7-yl)-5-cyano-3,4-dihydroxytetrahydrofuran-2-yl)methyl 2-cyclohexyl-2-methylpropanoate], where the note is “Caco-2”, the apical-to-basolateral permeability (Papp A→B) (in general, the apparent permeability from the apical to the basolateral side of a cell layer) at 90 min was 15 ×10⁻⁶ cm/s; the Papp B→A (as a rule, the apparent permeability from the basolateral to the apical side of a cell layer) at 90 min is 20 ×10⁻⁶ cm/s; the efflux ratio at 90 min was found to be 1.3.
For `CCCC(=O)Nc1ncnn2c([C@]3(C#N)O[C@H](COC(=O)CC4(N)CCCCC4)[C@@H](O)[C@H]3O)ccc12` [Compound 354, ((2R,3S,4R,5R)-5-(4-butyramidopyrrolo[2,1-f][1,2,4]triazin-7-yl)-5-cyano-3,4-dihydroxytetrahydrofuran-2-yl)methyl 2-(1-aminocyclohexyl)acetate] the same measures were 10 ×10⁻⁶ cm/s, 3 ×10⁻⁶ cm/s and 0.29.
Turning to `N#C[C@@]1(c2ccc3c(NC(=O)[C@@H](N)Cc4ccc(F)cc4)ncnn23)O[C@H](COC(=O)Cc2ccccc2)[C@@H](O)[C@H]1O` [Compound 97, ((2R,3S,4R,5R)-5-(4-((S)-2-amino-3-(4-fluorophenyl)propanamido)pyrrolo[2,1-f][1,2,4]triazin-7-yl)-5-cyano-3,4-dihydroxytetrahydrofuran-2-yl)methyl 2-phenylacetate], the Papp A→B at 90 min under setting [1] was found to be 3.8 ×10⁻⁶ cm/s. Moreover, the Papp B→A at 90 min under setting [2] was 6.6 ×10⁻⁶ cm/s. In addition, the efflux ratio at 90 min under setting [3] came out at 1.8.
For `C[C@H]1CC[C@H](CC(=O)OC[C@H]2O[C@@](C#N)(c3ccc4c(N)ncnn34)[C@H](O)[C@@H]2O)CC1` [Compound 278, ((2R,3S,4R,5R)-5-(4-aminopyrrolo[2,1-f][1,2,4]triazin-7-yl)-5-cyano-3,4-dihydroxytetrahydrofuran-2-yl)methyl 2-((1r,4R)-4-methylcyclohexyl)acetate], where the note is “Caco-2”, the Papp A→B at 90 min was 2.2 ×10⁻⁶ cm/s, the Papp B→A at 90 min was 4.9 ×10⁻⁶ cm/s and the efflux ratio at 90 min worked out at 2.2.
With `CC(C)[C@H](N)C(=O)O[C@H]1[C@@H](O)[C@](C#N)(c2ccc3c(N)ncnn23)O[C@@H]1COC(=O)Cc1ccccc1` [Compound 43, (2R,3S,4R,5R)-5-{4-aminopyrrolo[2,1-f][1,2,4]triazin-7-yl}-5-cyano-4-hydroxy-2-{[(2-phenylacetyl)oxy]methyl}oxolan-3-yl (2S)-2-amino-3-methylbutanoate], the Papp A→B at 90 min under setting [1] came out at 0.74 ×10⁻⁶ cm/s. Besides, the Papp B→A at 90 min under setting [2] is 0.22 ×10⁻⁶ cm/s. The efflux ratio at 90 min under setting [3] is 0.3.
Take `CC(C)CC(=O)OC[C@H]1O[C@@](C#N)(c2ccc3c(N)ncnn23)[C@H](O)[C@@H]1O` [Compound 9, ((2R,3S,4R,5R)-5-(4-aminopyrrolo[2,1-f][1,2,4]triazin-7-yl)-5-cyano-3,4-dihydroxytetrahydrofuran-2-yl)methyl 3-methylbutanoate]: where the note is “Caco-2”, the Papp A→B at 90 min came to 3 ×10⁻⁶ cm/s, the Papp B→A at 90 min came to 4.7 ×10⁻⁶ cm/s and the efflux ratio at 90 min is 1.6.
Regarding `CCC(=O)OC[C@H]1O[C@@](C#N)(c2ccc3c(N)ncnn23)[C@H](O)[C@@H]1OC(=O)CC` [Compound 71], the apical-to-basolateral permeability (Papp A→B) at 90 min under setting [1] stood at 0.94 ×10⁻⁶ cm/s. Besides, the basolateral-to-apical permeability (Papp B→A) at 90 min under setting [2] is 2.3 ×10⁻⁶ cm/s. The efflux ratio at 90 min under setting [3] was found to be 2.4.
Regarding `CC(=O)OCOC(=O)Nc1ncnn2c([C@]3(C#N)O[C@H](COC(=O)Cc4ccccc4)[C@@H](OC(=O)[C@@H](N)C(C)C)[C@H]3O)ccc12` [Compound 355, (2R,3S,4R,5R)-5-(4-(((acetoxymethoxy)carbonyl)amino)pyrrolo[2,1-f][1,2,4]triazin-7-yl)-5-cyano-4-hydroxy-2-((2-phenylacetoxy)methyl)tetrahydrofuran-3-yl L-valinate], the apical-to-basolateral permeability (Papp A→B) at 90 min under setting [1] came out at 1.5 ×10⁻⁶ cm/s. Besides, the Papp B→A at 90 min under setting [2] came out at 0.49 ×10⁻⁶ cm/s. For the same molecule, the efflux ratio at 90 min under setting [3] was 0.33.
Regarding `N#C[C@@]1(c2ccc3c(N)ncnn23)O[C@H](COC(=O)CC2CCCC2)[C@@H](O)[C@H]1O` [Compound 259, ((2R,3S,4R,5R)-5-(4-aminopyrrolo[2,1-f][1,2,4]triazin-7-yl)-5-cyano-3,4-dihydroxytetrahydrofuran-2-yl)methyl 2-cyclopentylacetate], for the setting “Caco-2”, the Papp A→B at 90 min stood at 2 ×10⁻⁶ cm/s, the Papp B→A at 90 min is 0.6 ×10⁻⁶ cm/s and the efflux ratio at 90 min came out at 0.3.
For `CC(=O)OCOC(=O)Nc1ncnn2c([C@]3(C#N)O[C@H](COC(=O)CC4CCCCC4)[C@@H](OC(=O)[C@@H](N)C(C)C)[C@H]3O)ccc12` [Compound 358, (2R,3S,4R,5R)-5-(4-(((acetoxymethoxy)carbonyl)amino)pyrrolo[2,1-f][1,2,4]triazin-7-yl)-5-cyano-2-((2-cyclohexylacetoxy)methyl)-4-hydroxytetrahydrofuran-3-yl L-valinate] the same measures were 0.3 ×10⁻⁶ cm/s, 0.1 ×10⁻⁶ cm/s and 0.33.
The matching figures for `CC(=O)O[C@H]1[C@@H](O)[C@](C#N)(c2ccc3c(N)ncnn23)O[C@@H]1COC(=O)[C@@H](N)C(C)C` [Compound 37, ((2R,3S,4R,5R)-3-acetoxy-5-(4-aminopyrrolo[2,1-f][1,2,4]triazin-7-yl)-5-cyano-4-hydroxytetrahydrofuran-2-yl)methyl L-valinate]: 0.37 ×10⁻⁶ cm/s, 0.12 ×10⁻⁶ cm/s and 0.33.
For `CC(C)C(=O)Nc1ncnn2c([C@]3(C#N)O[C@H](COC(=O)CC4CCCCC4)[C@@H](OC(=O)[C@@H](N)C(C)C)[C@H]3O)ccc12` [Compound 349, (2R,3S,4R,5R)-5-cyano-2-((2-cyclohexylacetoxy)methyl)-4-hydroxy-5-(4-isobutyramidopyrrolo[2,1-f][1,2,4]triazin-7-yl)tetrahydrofuran-3-yl L-valinate] the same measures were 1.9 ×10⁻⁶ cm/s, 10 ×10⁻⁶ cm/s and 5.6.
In the case of `N#C[C@@]1(c2ccc3c(N)ncnn23)O[C@H](COC(=O)[C@@H](N)Cc2ccccc2)[C@@H](OC(=O)CC2CCCCC2)[C@H]1O` [Compound 372, ((2R,3S,4R,5R)-5-(4-aminopyrrolo[2,1-f][1,2,4]triazin-7-yl)-5-cyano-3-(2-cyclohexylacetoxy)-4-hydroxytetrahydrofuran-2-yl)methyl L-phenylalaninate], for the setting “Caco-2”, the Papp A→B at 90 min was found to be 0.73 ×10⁻⁶ cm/s, the Papp B→A at 90 min came out at 0.83 ×10⁻⁶ cm/s and the efflux ratio at 90 min was determined as 1.1.
With `N#C[C@@]1(c2ccc3c(N)ncnn23)O[C@H](COC(=O)Cc2ccccc2)[C@@H](O)[C@H]1O` [Compound 12, ((2R,3S,4R,5R)-5-(4-aminopyrrolo[2,1-f][1,2,4]triazin-7-yl)-5-cyano-3,4-dihydroxytetrahydrofuran-2-yl)methyl 2-phenylacetate], under setting [1], the Papp A→B at 90 min worked out at 3 ×10⁻⁶ cm/s. Further, the Papp B→A at 90 min under setting [2] came out at 8.9 ×10⁻⁶ cm/s. The efflux ratio at 90 min under setting [3] worked out at 3.
As for `CC(C)[C@H](N)C(=O)Nc1ncnn2c([C@]3(C#N)O[C@H](COC(=O)CC4CCCCC4)[C@@H](O)[C@H]3O)ccc12` [Compound 112, [(2R,3S,4R,5R)-5-{4-[(2S)-2-amino-3-methylbutanamido]pyrrolo[2,1-f][1,2,4]triazin-7-yl}-5-cyano-3,4-dihydroxyoxolan-2-yl]methyl 2-cyclohexylacetate], for the setting “Caco-2”, the apical-to-basolateral permeability (Papp A→B) at 90 min turned out to be 0.14 ×10⁻⁶ cm/s, the Papp B→A at 90 min is 6.1 ×10⁻⁶ cm/s and the efflux ratio at 90 min stood at 44.
For `CC(=O)OC[C@H]1O[C@@](C#N)(c2ccc3c(N)ncnn23)[C@H](O)[C@@H]1OC(=O)CC(C)C` [Compound 49, (2R,3S,4R,5R)-2-(acetoxymethyl)-5-(4-aminopyrrolo[2,1-f][1,2,4]triazin-7-yl)-5-cyano-4-hydroxytetrahydrofuran-3-yl 3-methylbutanoate] the same measures were 3.9 ×10⁻⁶ cm/s, 2.7 ×10⁻⁶ cm/s and 0.7.
Turning to `CCC(=O)O[C@@H]1[C@@H](COC(=O)C(C)C)O[C@@H](n2cnc3c(NC)nc(N)nc32)[C@]1(C)F` [Compound 235, ((2R,3R,4R,5R)-5-(2-amino-6-(methylamino)-9H-purin-9-yl)-4-fluoro-4-methyl-3-(propionyloxy)tetrahydrofuran-2-yl)methyl isobutyrate], under “Caco-2”, the Papp A→B at 90 min is 11 ×10⁻⁶ cm/s, the Papp B→A at 90 min is 4.5 ×10⁻⁶ cm/s and the efflux ratio at 90 min is 0.4.
For `CC(C)CC(=O)O[C@H]1[C@@H](O)[C@](C#N)(c2ccc3c(N)ncnn23)O[C@@H]1COC(=O)CC1CCCCC1` [Compound 25, (2R,3S,4R,5R)-5-(4-aminopyrrolo[2,1-f][1,2,4]triazin-7-yl)-5-cyano-2-((2-cyclohexylacetoxy)methyl)-4-hydroxytetrahydrofuran-3-yl 3-methylbutanoate] the same measures were 56 ×10⁻⁶ cm/s, 42 ×10⁻⁶ cm/s and 0.7.
For `CC(C)C(=O)Nc1ncnn2c([C@]3(C#N)O[C@H](COC(=O)Cc4ccccc4)[C@@H](OC(=O)[C@@H](N)C(C)(C)C)[C@H]3O)ccc12` [Compound 401, (2R,3S,4R,5R)-5-cyano-4-hydroxy-5-(4-isobutyramidopyrrolo[2,1-f][1,2,4]triazin-7-yl)-2-((2-phenylacetoxy)methyl)tetrahydrofuran-3-yl (S)-2-amino-3,3-dimethylbutanoate], the Papp A→B at 90 min under setting [1] stood at 3.8 ×10⁻⁶ cm/s. The Papp B→A at 90 min under setting [2] is 15.3 ×10⁻⁶ cm/s. Also, the efflux ratio at 90 min under setting [3] was found to be 4.1.
With `N#C[C@@]1(c2ccc3c(NC(=O)[C@@H](N)Cc4ccc(F)cc4)ncnn23)O[C@H](COC(=O)CC2(N)CCCCC2)[C@@H](O)[C@H]1O` [Compound 352, ((2R,3S,4R,5R)-5-(4-((S)-2-amino-3-(4-fluorophenyl)propanamido)pyrrolo[2,1-f][1,2,4]triazin-7-yl)-5-cyano-3,4-dihydroxytetrahydrofuran-2-yl)methyl 2-(1-aminocyclohexyl)acetate], under “Caco-2”, the Papp A→B at 90 min was 0.25 ×10⁻⁶ cm/s, the Papp B→A at 90 min stood at 1.4 ×10⁻⁶ cm/s and the efflux ratio at 90 min came out at 5.7.
